Reference: paper PMC12172032, “Chemical and Genetic Validation of an Essential Calcium Entry Channel of Trypanosoma brucei as a Therapeutic Target” (ACS Infectious Diseases, 2025)

Target: T1, TbCaV (TbCav; FS179; TbCaCh) (Trypanosoma brucei, UniProt Q38BV7)
T1 construct: gene Tb10.70.4750; native full-length channel in intact T. brucei cells, 2693 aa, approx. 301 kDa, single subunit, untagged wild type
Test: Ca2+ entry into intact T. brucei, Cal-590 fluorescence
Format: cell-based
Conditions: wild-type T. brucei BSF (Figure 9A inset); 1.8 mM Ca2+ added after 100 μM EGTA, BAG buffer pH 7.0; whole-cell Ca2+ entry attributed to TbCaV, direct binding not shown

T1 sequence (Q38BV7 1-2693): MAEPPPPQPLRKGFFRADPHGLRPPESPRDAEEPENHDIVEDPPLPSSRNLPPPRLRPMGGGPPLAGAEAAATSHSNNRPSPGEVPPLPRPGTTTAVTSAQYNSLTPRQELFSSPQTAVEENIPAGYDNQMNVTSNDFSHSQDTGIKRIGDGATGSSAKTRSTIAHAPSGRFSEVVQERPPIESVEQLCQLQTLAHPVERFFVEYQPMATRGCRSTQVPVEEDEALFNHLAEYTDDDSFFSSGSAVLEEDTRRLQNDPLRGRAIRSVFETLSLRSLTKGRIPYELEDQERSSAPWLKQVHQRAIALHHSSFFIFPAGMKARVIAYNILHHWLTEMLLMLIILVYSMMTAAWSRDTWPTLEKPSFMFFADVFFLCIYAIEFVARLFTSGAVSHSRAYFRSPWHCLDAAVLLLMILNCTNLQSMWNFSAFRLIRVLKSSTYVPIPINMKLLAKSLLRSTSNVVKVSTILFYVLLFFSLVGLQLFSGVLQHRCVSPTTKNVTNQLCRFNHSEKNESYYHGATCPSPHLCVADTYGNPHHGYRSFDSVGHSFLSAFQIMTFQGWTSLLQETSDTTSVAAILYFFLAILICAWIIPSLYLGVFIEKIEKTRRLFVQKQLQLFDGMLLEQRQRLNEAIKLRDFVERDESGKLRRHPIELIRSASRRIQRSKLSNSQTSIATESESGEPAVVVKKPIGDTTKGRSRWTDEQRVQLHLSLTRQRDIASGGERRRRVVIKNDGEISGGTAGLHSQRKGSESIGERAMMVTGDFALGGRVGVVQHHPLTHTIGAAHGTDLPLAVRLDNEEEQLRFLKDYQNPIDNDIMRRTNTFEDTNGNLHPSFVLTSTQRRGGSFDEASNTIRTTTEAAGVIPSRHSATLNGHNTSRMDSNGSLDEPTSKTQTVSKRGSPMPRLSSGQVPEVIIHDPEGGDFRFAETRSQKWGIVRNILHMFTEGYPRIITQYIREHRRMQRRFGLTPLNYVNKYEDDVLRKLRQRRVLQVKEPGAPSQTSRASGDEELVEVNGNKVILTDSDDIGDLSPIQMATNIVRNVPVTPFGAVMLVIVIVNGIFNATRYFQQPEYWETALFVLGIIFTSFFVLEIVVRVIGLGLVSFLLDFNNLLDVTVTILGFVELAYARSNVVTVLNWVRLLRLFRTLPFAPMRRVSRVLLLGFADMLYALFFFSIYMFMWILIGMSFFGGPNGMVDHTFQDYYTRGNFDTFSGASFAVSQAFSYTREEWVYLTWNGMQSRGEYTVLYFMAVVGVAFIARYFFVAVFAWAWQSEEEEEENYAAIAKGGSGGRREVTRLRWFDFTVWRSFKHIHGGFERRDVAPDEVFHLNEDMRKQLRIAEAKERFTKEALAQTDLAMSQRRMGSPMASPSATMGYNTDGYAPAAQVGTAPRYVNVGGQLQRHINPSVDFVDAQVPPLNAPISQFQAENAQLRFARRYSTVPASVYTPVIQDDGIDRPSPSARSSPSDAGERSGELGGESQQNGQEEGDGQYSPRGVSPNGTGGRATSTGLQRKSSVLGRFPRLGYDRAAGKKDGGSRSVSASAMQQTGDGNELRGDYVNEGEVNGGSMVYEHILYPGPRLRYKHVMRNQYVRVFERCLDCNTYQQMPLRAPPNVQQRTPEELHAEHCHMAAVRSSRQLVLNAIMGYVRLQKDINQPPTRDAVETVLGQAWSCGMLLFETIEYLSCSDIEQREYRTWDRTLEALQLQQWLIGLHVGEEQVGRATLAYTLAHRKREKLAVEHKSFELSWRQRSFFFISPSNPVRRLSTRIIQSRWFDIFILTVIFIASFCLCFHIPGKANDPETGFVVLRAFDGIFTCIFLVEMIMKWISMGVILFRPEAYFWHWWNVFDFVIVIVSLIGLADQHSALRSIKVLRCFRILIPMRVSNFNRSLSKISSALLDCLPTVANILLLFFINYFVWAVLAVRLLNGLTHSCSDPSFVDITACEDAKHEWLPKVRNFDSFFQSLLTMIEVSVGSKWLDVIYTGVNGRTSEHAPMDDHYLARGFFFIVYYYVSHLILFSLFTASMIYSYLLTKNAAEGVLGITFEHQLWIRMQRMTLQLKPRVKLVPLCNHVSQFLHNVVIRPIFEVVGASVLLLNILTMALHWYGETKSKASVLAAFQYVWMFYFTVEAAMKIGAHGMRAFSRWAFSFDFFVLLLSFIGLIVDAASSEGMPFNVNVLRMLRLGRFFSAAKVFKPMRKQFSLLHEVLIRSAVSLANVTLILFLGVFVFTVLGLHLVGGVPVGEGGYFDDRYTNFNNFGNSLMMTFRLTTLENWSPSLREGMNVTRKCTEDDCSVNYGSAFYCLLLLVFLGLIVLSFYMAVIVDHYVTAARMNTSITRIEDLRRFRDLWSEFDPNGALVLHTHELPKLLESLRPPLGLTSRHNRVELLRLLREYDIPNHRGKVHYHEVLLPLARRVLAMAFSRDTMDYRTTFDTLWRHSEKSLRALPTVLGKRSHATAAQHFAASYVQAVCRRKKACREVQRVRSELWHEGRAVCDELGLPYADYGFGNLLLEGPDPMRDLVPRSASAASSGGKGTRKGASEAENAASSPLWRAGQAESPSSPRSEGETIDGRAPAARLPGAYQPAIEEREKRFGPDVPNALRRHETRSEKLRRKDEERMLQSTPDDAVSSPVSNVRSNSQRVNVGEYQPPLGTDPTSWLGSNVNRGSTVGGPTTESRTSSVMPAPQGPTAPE

CC(=O)Nc1ccc([N+](=O)[O-])c2nonc12 [NBD-A, N-(7-nitro-2,1,3-benzoxadiazol-4-yl) acetamide]
IC50: 1460 ± 30 nM
